Experimental data: patent publication US20230143612A1 (Arbutus Biopharma Corporation, priority 2020, published 2023)

Target: PD-L1 His protein / PD-1 Fc protein (Homo sapiens, UniProt Q9NZQ7)
Experiment: HTRF Assay (PD-1/PD-L1 interaction)
Assay type: binding
Details: PD-L1 His 6 nM, PD-1 Fc 6 nM
In short: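 HTRF: PD-L1 His (6 nM final), compound (3-fold dilutions, 20 μM to 0.001 μM final) and PD-1 Fc (6 nM final) preincubated 15 min at room temperature. Anti-human IgG-XL665 and anti-6HIS Tb cryptate (mixed at 6.7 nM and 0.35 nM) then added for 1 h at room temperature before reading.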

Chain of PD-L1 His protein / PD-1 Fc protein (Q9NZQ7 19-238 limits assumed): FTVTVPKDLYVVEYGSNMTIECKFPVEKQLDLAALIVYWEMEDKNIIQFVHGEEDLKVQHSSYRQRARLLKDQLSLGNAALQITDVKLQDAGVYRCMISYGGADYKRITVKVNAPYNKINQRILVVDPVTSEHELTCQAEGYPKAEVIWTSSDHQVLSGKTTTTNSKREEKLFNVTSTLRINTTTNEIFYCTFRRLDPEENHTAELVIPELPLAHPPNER

Compound	IC50 [µM]
COc1nc(-c2cccc(-c3cccc(-c4ccc5nc(CNC[C@H](C)O)cn5n4)c3Cl)c2Cl)ccc1CNC[C@@H]1CCC(=O)N1 [Example 354, (5S)-5-[[[6-[2-Chloro-3-[2-chloro-3-[2-[[[(2S)-2-hydroxypropyl]amino]methyl]imidazo[1,2-b]pyridazin-6-yl]phenyl]phenyl]-2-methoxy-3-pyridyl]methylamino]methyl]pyrrolidin-2-one]	0.0008
COc1nc(-c2cccc(-c3cccc(-c4ccc5nc(CNC[C@@H](O)CC(=O)N(C)C)cn5n4)c3Cl)c2Cl)ccc1CNC[C@@H]1CCC(=O)N1 [Example 355, (3S)-4-[[6-[2-Chloro-3-[2-chloro-3-[6-methoxy-5-[[[(2S)-5-oxopyrrolidin-2-yl]methylamino]methyl]-2-pyridyl]phenyl]phenyl]imidazo[1,2-b]pyridazin-2-yl]methylamino]-3-hydroxy-N,N-dimethyl-butanamide]	0.0001
COc1nc(-c2cccc(-c3cccc(-c4ccc5nc(CNC[C@@H]6CCC(=O)N6)cn5c4)c3Cl)c2Cl)ccc1CNC[C@@H]1CCC(=O)N1 [Example 356, (5S)-5-[[[6-[2-Chloro-3-[2-chloro-3-[2-[[[(2S)-5-oxopyrrolidin-2-yl]methylamino]methyl]imidazo[1,2-a]pyridin-6-yl]phenyl]phenyl]-2-methoxy-3-pyridyl]methylamino]methyl]pyrrolidin-2-one]	0.086
COc1nc(-c2cccc(-c3cccc(-c4ccn5cc(CNC[C@@H]6CCC(=O)N6)nc5c4)c3Cl)c2Cl)ccc1CNC[C@@H]1CCC(=O)N1 [Example 357, (5S)-5-[[[6-[2-Chloro-3-[2-chloro-3-[2-[[[(2S)-5-oxopyrrolidin-2-yl]methylamino]methyl]imidazo[1,2-a]pyridin-7-yl]phenyl]phenyl]-2-methoxy-3-pyridyl]methylamino]methyl]pyrrolidin-2-one]	0.05
COC(=O)C1(CNCc2cnc3cc(-c4cccc(-c5cccc(-c6ccc(CNC[C@@H]7CCC(=O)N7)c(OC)n6)c5Cl)c4Cl)ccn3c2=O)COC1 [Example 358, methyl (S)-3-((((8-(2,2′-dichloro-3′-(6-methoxy-5-((((5-oxopyrrolidin-2-yl)-methyl)-amino)-methyl)-pyridin-2-yl)-[1,1′-biphenyl]-3-yl)-4-oxo-4H-pyrido[1,2-a]pyrimidin-3-yl)-methyl)-amino)-methyl)oxetane-3-carboxylate]	0.0001
COc1nc(-c2cccc(-c3cccc(-c4ccn5c(=O)c(CNCC6NC(=O)CC6(C)C)cnc5c4)c3Cl)c2Cl)ccc1CNC[C@@H]1CCC(=O)N1 (stereo partly drawn) [Example 359, 8-(2,2′-dichloro-3′-(6-methoxy-5-(((((S)-5-oxopyrrolidin-2-yl)methyl)-amino)-methyl)-pyridin-2-yl)-[1,1′-biphenyl]-3-yl)-3-((((3,3-dimethyl-5-oxopyrrolidin-2-yl)methyl)amino)methyl)-4H-pyrido[1,2-a]pyrimidin-4-one]	0.067
COc1cc(-c2cccc(-c3cccc(-c4ccn5c(=O)c(CNC[C@@H]6CCC(=O)N6)cnc5c4)c3Cl)c2Cl)cnc1CNC[C@@H]1CCC(=O)N1 [Example 360, 8-(2,2′-Dichloro-3′-(5-methoxy-6-(((((S)-5-oxopyrrolidin-2-yl)-methyl)-amino)methyl)-pyridin-3-yl)-[1,1′-biphenyl]-3-yl)-3-(((((S)-5-oxopyrrolidin-2-yl)methyl)amino)methyl)-4H-pyrido[1,2-a]pyrimidin-4-one]	0.0007
COc1cc(-c2cccc(-c3cccc(-c4ccn5c(=O)c(CN[C@H]6C[C@](C)(O)C6)cnc5c4)c3Cl)c2Cl)cnc1CN[C@H]1C[C@](C)(O)C1 [Example 361, 8-(2,2′-Dichloro-3′-(6-((((1r,3r)-3-hydroxy-3-methylcyclobutyl)amino)methyl)-5-methoxypyridin-3-yl)-[1,1′-biphenyl]-3-yl)-3-((((1r,3r)-3-hydroxy-3-methylcyclobutyl)amino)methyl)-4H-pyrido[1,2-a]pyrimidin-4-one]	0.039
COc1cc(-c2cccc(-c3cccc(-c4ccn5c(=O)c(CN(C)CCO)cnc5c4)c3Cl)c2Cl)cnc1CN(C)CCO [Example 362, 8-(2,2′-Dichloro-3′-(6-(((2-hydroxyethyl)(methyl)amino)methyl)-5-methoxypyridin-3-yl)-[1,1′-biphenyl]-3-yl)-3-(((2-hydroxyethyl)(methyl)amino)methyl)-4H-pyrido[1,2-a]pyrimidin-4-one]	0.036
COc1nc(-c2cccc(-c3cccc(-c4ccc5c(c4)CNCCN5C)c3Cl)c2Cl)ccc1CNC[C@@H]1CCC(=O)N1 [Example 363, (S)-5-((((6-(2,2′-Dichloro-3′-(1-methyl-2,3,4,5-tetrahydro-1H-benzo[e][1,4]diazepin-7-yl)-[1,1′-biphenyl]-3-yl)-2-methoxypyridin-3-yl)methyl)amino)methyl)pyrrolidin-2-one]	0.085
COc1nc(-c2cccc(-c3cccc(-c4ccc5c(c4)N(C)CCNC5)c3Cl)c2Cl)ccc1CNC[C@@H]1CCC(=O)N1 [Example 364, (S)-5-((((6-(2,2′-Dichloro-3′-(1-methyl-2,3,4,5-tetrahydro-1H-benzo[e][1,4]diazepin-8-yl)-[1,1′-biphenyl]-3-yl)-2-methoxypyridin-3-yl)methyl)amino)methyl)pyrrolidin-2-one]	0.15
COc1nc(-c2cccc(-c3cccc(-c4ccc5c(c4)cc4n5CCNC4)c3Cl)c2Cl)ccc1CNC[C@@H]1CCC(=O)N1 [Example 365, (S)-5-((((6-(2,2′-Dichloro-3′-(1,2,3,4-tetrahydropyrazino[1,2-a]indol-8-yl)-[1,1′-biphenyl]-3-yl)-2-methoxypyridin-3-yl)methyl)amino)methyl)919yrrolidine-2-one]	0.013
COc1nc(-c2cccc(-c3cccc(-c4ccc5c(n4)c(Cl)c(CNC[C@@H]4CCC(=O)N4)n5C)c3Cl)c2Cl)ccc1CNC[C@@H]1CCC(=O)N1 [Example 366, (S)-5-((((3-Chloro-5-(2,2′-dichloro-3′-(6-methoxy-5-(((((S)-5-oxopyrrolidin-2-yl)methyl)-amino)methyl)-pyridin-2-yl)-[1,1′-biphenyl]-3-yl)-1-methyl-1H-pyrrolo[3,2-b]pyridin-2-yl)methyl)amino)-methyl)-pyrrolidin-2-one]	0.0015
COc1nc(-c2cccc(-c3cccc(-c4ccc5c(OC)c(CNC[C@H](C)O)cc(Cl)c5n4)c3Cl)c2Cl)ccc1CNC[C@@H]1CCC(=O)N1 [Example 367, (S)-5-((((6-(2,2′-Dichloro-3′-(8-chloro-6-((((S)-2-hydroxypropyl)amino)methyl)-5-methoxyquinolin-2-yl)-[1,1′-biphenyl]-3-yl)-2-methoxypyridin-3-yl)methyl)amino)methyl)pyrrolidin-2-one]	0.021
COc1nc(-c2cccc(-c3cccc(-c4ccn5c(=O)c(CNCC6(C)CCC(=O)N6)cnc5c4)c3Cl)c2Cl)ccc1CNC[C@@H]1CCC(=O)N1 (stereo partly drawn) [Example 368, 8-(2,2′-dichloro-3′-(6-methoxy-5-(((((S)-5-oxopyrrolidin-2-yl)-methyl)-amino)-methyl)-pyridin-2-yl)-[1,1′-biphenyl]-3-yl)-3-((((2-methyl-5-oxopyrrolidin-2-yl)methyl)-amino)-methyl)-4H-pyrido[1,2-a]pyrimidin-4-one]	0.001
COc1nc(-c2cccc(-c3cccc(-c4ccc5cc(CNC[C@@H]6CCC(=O)N6)ccc5n4)c3Cl)c2Cl)ccc1CNC[C@@H]1CCC(=O)N1 [Example 369, (5S)-5-[[[2-[2-Chloro-3-[2-chloro-3-[6-methoxy-5-[[[(2S)-5-oxopyrrolidin-2-yl]methylamino]methyl]-2-pyridyl]phenyl]phenyl]-6-quinolyl]methylamino]methyl]pyrrolidin-2-one]	0.56
COc1nc(-c2cccc(-c3cccc(-c4cnc5cc(CNC[C@@H]6CCC(=O)N6)ccc5c4)c3Cl)c2Cl)ccc1CNC[C@@H]1CCC(=O)N1 [Example 370, (5S)-5-[[[3-[2-Chloro-3-[2-chloro-3-[6-methoxy-5-[[[(2S)-5-oxopyrrolidin-2-yl]methylamino]methyl]-2-pyridyl]phenyl]phenyl]-7-quinolyl]methylamino]methyl]pyrrolidin-2-one]	0.58
COc1nc(-c2cccc(-c3cccc(-c4ccn5c(=O)c(C)c(CNCCO)nc5c4)c3Cl)c2Cl)ccc1CNC[C@@H]1CCC(=O)N1 [Example 371, (S)-8-(2,2′-Dichloro-3′-(6-methoxy-5-((((5-oxopyrrolidin-2-yl)methyl)amino)methyl)pyridin-2-yl)-[1,1′-biphenyl]-3-yl)-2-(((2-hydroxyethyl)amino)methyl)-3-methyl-4H-pyrido[1,2-a]pyrimidin-4-one]	0.033
COc1nc(-c2cccc(-c3cccc(-c4ccn5c(=O)c(C)c(CNC[C@@H]6CCC(=O)N6)nc5c4)c3Cl)c2Cl)ccc1CNC[C@@H]1CCC(=O)N1 [Example 372, 8-(2,2′-Dichloro-3′-(6-methoxy-5-(((((S)-5-oxopyrrolidin-2-yl)methyl)amino)methyl)pyridin-2-yl)-[1,1′-biphenyl]-3-yl)-3-methyl-2-(((((S)-5-oxopyrrolidin-2-yl)methyl)amino)methyl)-4H-pyrido[1,2-a]pyrimidin-4-one]	0.06
COc1nc(-c2cccc(-c3cccc(-c4ccn5c(=O)c(C)c(CN[C@H]6C[C@](C)(O)C6)nc5c4)c3Cl)c2Cl)ccc1CNC[C@@H]1CCC(=O)N1 [Example 373, 8-(2,2′-Dichloro-3′-(6-methoxy-5-(((((S)-5-oxopyrrolidin-2-yl)methyl)amino)methyl)pyridin-2-yl)-[1,1′-biphenyl]-3-yl)-2-((((1r,3r)-3-hydroxy-3-methylcyclobutyl)amino)methyl)-3-methyl-4H-pyrido[1,2-a]pyrimidin-4-one]	0.033
COc1nc(-c2cccc(-c3cccc(-c4ccn5c(=O)c6c(nc5c4)N(C)CCNC6)c3Cl)c2Cl)ccc1CNC[C@@H]1CCC(=O)N1 [Example 374, (S)-10-(2,2′-Dichloro-3′-(6-methoxy-5-((((5-oxopyrrolidin-2-yl)methyl)amino)methyl)pyridin-2-yl)-[1,1′-biphenyl]-3-yl)-1-methyl-2,3,4,5-tetrahydropyrido[1′,2′:1,2]pyrimido [4,5-e][1,4]diazepin-6(1H)-one]	0.0065
